In patent US10246425B2, “3,5-diamino-6-chloro-N-(N-(4-phenylbutyl)carbamimidoyl) pyrazine-2-carboxamide compounds” (Parion Sciences, Inc., priority 2012, dated 2019):

How the values were obtained:
[1] = tested on: human bronchial epithelial (HBE) cells; test: Airway surface liquid drug (ASL) clearance and metabolism by human airway epithelium; type: in vitro ADME; conditions: for % of Apical Mass as Metabolites (2 h) / % of Initial Apical Mass on Basolateral Side (2 h) / % on Basolateral Side as Metabolites (2 h): 25 μL of 25 μM apical
Method: Assay 3. Airway Surface Liquid Drug (ASL) Clearance and Metabolism by Human Airway Epithelium
(§1) The disappearance of Compound II-d from the apical surface and airway epithelial metabolism were assessed in human bronchial epithelial (HBE) cells (Table 3). In these experiments 25 μL of a 25 μM solution of ENaC blocker was added to the apical surface of HBE cells grown at an air/liquid interface, and the drug concentration in the apical and basolateral compartment was measured over 2 h by UPLC.
as §1, with “Therefore, the compounds of Formula (A) have a longer half-life on mucosal surfaces compared to these know compounds as evidenced by the data shown in Table 4. The” for “The”, “HBE and compared to Comparative Example 1” for “human bronchial epithelial (HBE) cells”, “4).” for “3).”

[2] = Plasma potassium in sheep of the MCC study (marker for hyperkalemia)
Method: The animal model that has been used most often to measure changes in MCC is the sheep model. The effect of compounds for enhancing mucociliary clearance (MCC) can be measured using an in vivo model described by Sabater et al., Journal of Applied Physiology, 1999, pp. 2191-2196, incorporated herein by reference. In these studies, adult sheep were restrained and nasally intubated with an endotracheal tube. Aerosolized test articles were administered over 10-15 minutes to sheep. Radiolabeled ^99mTc-sulfur colloid (TSC, 3.1 mg/mL; containing approximately 20 mCi) was then administered at a specified time four or eight hours after test article. The radiolabeled aerosol was administered through the endotracheal tube for about 5 minutes. The sheep were then extubated, and total radioactive counts in the lung were measured every 5 minutes for a 1-hour observation period. The rate of radiolabel clearance from the lung is representative of the MCC rate in the animal. The advantage of this system is that it closely simulates the human lung environment. The model also allows for the collection of simultaneous PK/PD information through plasma and urine sampling over the test period. There are also several techniques to measure the drug concentrations on the airway surface during the MCC measurements. These include the collection of exhaled breath condensates or a filter paper method to obtain ASL via bronchoscopy.
The ovine model described above was used to evaluate the in vivo effects (efficacy/durability) of aerosol-delivered Compound II-d on MCC. Treatments consisting of either 4 mL of Compound II-d, Comparative Example 1, (S)-3,5-diamino-6-chloro-N—(N-(4-(4-(2,3-diamino-3-oxopropoxy)phenyl)butyl)carbamimidoyl)pyrazine-2-carboxamide, vehicle (sterile distilled H2O), or test agent in combination with HS were tested. To determine if combining HS with Compound II-d MCC, HS was administered immediately following Compound II-d administration. […] Radioactive counts were measured in a central region in the right lung at 5 min intervals for one hour with a gamma camera. […]

sheep = test: Mucociliary clearance (MCC) studies in sheep; type: in vivo
Description: Assay 2. Mucociliary Clearance (MCC) Studies in Sheep

Primary CBE cells = test: Airway hydration and sodium channel block (in vitro model): surface liquid retention; type: cell-based, canine; conditions: for surface liquid retained on apical surface (% initial volume): 50 μl buffer, 10 μM
Method: Assay 4. Airway Hydration and Sodium Channel Block (In Vitro Model)
Primary CBE cells are plated onto collagen-coated, porous membranes maintained at an air-liquid interface to assess maintenance of surface liquid volume over time. At the start of the experiment, each 12 mm snapwell insert was removed from the plate containing air-liquid interface culture media, blotted dry, weighed, and 50 μL of vehicle (0.1% DMSO), or ENaC blocker (10 μM in 0.1% DMSO) applied to the apical surface and the mass was recorded. The inserts were immediately returned to a transwell plate (500 μL, Krebs Ringer Bicarbonate (KRB), pH 7.4 in lower chamber) and placed in a 37° C., 5% CO2 incubator. To reduce artifact due to an apical carbohydrate osmotic gradient upon water loss, glucose was not included in the apical buffer. Compound (1a) was tested and compared to vehicle, and the mass of ASL was monitored serially from 0-8 or 24 h. The mass of surface liquid was converted to volume in μL. Data are reported as % initial volume (100%=50 μL).
The duration of sodium transport inhibition was determined indirectly by measuring the buffer retained after a 50 μl volume of experimental buffer was added to the apical surface of CBE cells.

[3] = Table 4: HBE cells, 2 h, mean ± SD
[4] = Table 4: HBE cells, 2 h, parent only
[5] = Table 5: sheep MCC 4 h post-dose, 24 nmol/kg (300 μM)
[6] = Table 5: sheep MCC 4 h post-dose, 240 nmol/kg (3 mM)
[7] = HBE cells, 2 h incubation on the apical surface (37° C.), UPLC
[8] = Table 5: sheep MCC 4 h post-dose, 0.024 nmol/kg (300 nM)
[9] = sheep MCC 4 h post-dose, 0.024 nmol/kg (300 nM) aerosol, mean ± SD (n)
[10] = sheep MCC 4 h post-dose, 0.24 nmol/kg (3 μM) aerosol, mean ± SD (n)

N=C(NCCCCc1ccc(OC[C@H](N)C(N)=O)cc1)NC(=O)c1nc(Cl)c(N)nc1N [Comparative Example 1, (S)-3,5-diamino-6-chloro-N—(N-(4-(4-(2,3-diamino-3-oxopropoxy)phenyl)butyl)carbamimidoyl)pyrazine-2-carboxamide, reference compound]
elimination from the apical side ([1]; HBE cells, 2 h): most of Comparative Example 1 was eliminated from the apical side
metabolized to the less active carboxylic acid ([1]; HBE cells, 2 h, apical side): 83%
% of Apical Mass as Metabolites (2 h) [1, 3]: 83.0 ± 3.5%
% of Initial Apical Mass on Basolateral Side (2 h) [1, 3]: 8.3 ± 0.2^ %
% on Basolateral Side as Metabolites (2 h) [1, 3]: 94.7 ± 1.0%
% of Initial Apical Mass on Basolateral Side as Parent (2 h) [1, 4]: (1% Parent)
% of Initial Drug Mass on Apical Side as Parent (2 h) [1, 4]: (8% Parent)
Top Dose in Sheep with no Elevation of Plasma Potassium [2]: 300 µM
ED50 (sheep; Ovis aries, sheep MCC 4 h post-dose, slope, AUC and Maximum Clearance, read-out: ED50 in the sheep MCC model): ~0.24 µmol/kg
AUC (% CI × h) (sheep; [5]): 6.9 ± 1.0 (3) % CI × h
Initial Slope (4.0-4.5 h) (sheep; [5]): 14.5 ± 1.3 (3)
AUC (% CI × h) (sheep; [6]): 14.1 ± 2.2 (6) % CI × h
Initial Slope (4.0-4.5 h) (sheep; [6]): 32.2 ± 7.3 (6)
MCC Highest Submaximal Dose (sheep; sheep): 3 mM
ED50 in the sheep MCC model (concentration of dosing solution) (sheep; sheep MCC 4 h post-dose): ~3 mM

N=C(NCCCCc1ccc(CC[C@H](NCCCN(C[C@H](O)[C@@H](O)[C@H](O)[C@H](O)CO)C[C@H](O)[C@@H](O)[C@H](O)[C@H](O)CO)C(N)=O)cc1)NC(=O)c1nc(Cl)c(N)nc1N [II-d, 3,5-diamino-N—(N-(4-(4-((S)-4-amino-3-(3-(bis((2S,3R,4R,5R)-2,3,4,5,6-pentahydroxyhexyl)amino)propylamino)-4-oxobutyl)phenyl)butyl)carbamimidoyl)-6-chloropyrazine-2-carboxamide]
compound detectable on the basolateral side [1, 7]: no Compound II-d was detectable on the basolateral side
metabolites on the apical or basolateral sides [1, 7]: no metabolites were detected
% of Apical Mass as Metabolites (2 h) ([1]; Table 3: HBE cells, 2 h): None
% on Basolateral Side as Metabolites (2 h) ([1]; Table 3: HBE cells, 2 h): None
% of Initial Apical Mass on Basolateral Side (2 h) ([1]; Table 3: HBE cells, 2 h, mean ± SD): 1.6 ± 0.15%
% of Apical Mass as Metabolites (2 h) [1, 3]: None
% of Initial Apical Mass on Basolateral Side (2 h) [1, 3]: 1.6 ± 0.15%
% on Basolateral Side as Metabolites (2 h) [1, 3]: None
surface liquid retained on apical surface (% initial volume) (Primary CBE cells; 8 hours): 112±11%
surface liquid retained on apical surface (% initial volume) (Primary CBE cells; 24 hours): 70.6±8.0%
loss of surface liquid relative to the 8-hour measure (Primary CBE cells; 24 hours): 16%
Therapeutic Index, times greater renal safety than Comparative Example 1 [2]: 10,000-100,000
Top Dose in Sheep with no Elevation of Plasma Potassium [2]: 300 µM
AUC (% CI × h) (sheep; [8]): 11.5 ± 0.9 (4) % CI × h
Initial Slope (4.0-4.5 h) (sheep; [8]): 26.5 ± 1.4 (4)
MCC Highest Submaximal Dose (sheep; sheep): 0.0003 mM
potency in sheep MCC relative to Comparative Example 1 (fold lower dose / times more potent) (sheep; sheep MCC 4 hours post-dose): 10,000
AUC (% CI - h) (sheep; [9]): 11.5 ± 0.9 (4) % CI - h
Initial Slope (4.0-4.5 h) (sheep; [9]): 26.5 ± 1.4 (4)
AUC (% CI - h) (sheep; [10]): 19.8 ± 1.4 (4) % CI - h
Initial Slope (4.0-4.5 h) (sheep; [10]): 41.9 ± 3.7 (4)
ED50 dose (sheep; sheep MCC four hour post-dosing): approximately 0.024 nmo/kg
percentage mucus clearance over time (FIG. 6) (sheep; sheep MCC, clinically relevant dose range): maximal effect
MCC effect at the top of the dose response curve (sheep; sheep, 0.24 nmol/kg dose): maximum (100%) MCC effect
effect on MCC compared to vehicle control (sheep; sheep, four hour post-dosing, all doses tested (0.024, 0.24 and 2.4 nmol/kg)): enhanced MCC compared to vehicle control
